Reference: US6403363B1, “Method of preservation of vaccines with polybiguanide” (priority 1997, dated 2002)
Where two headings read alike, the source gives them in different places.

What was measured:
[1] = Visible effect of preservative on allantoic fluid; type: physicochemical; conditions: preservative 0.1%
Text: The preserved samples were also examined to determine the visible effect on allantoic fluid, and the results are shown in Table 4 below.

seed virus grown in eggs = test system: seed virus grown in eggs; parameters: species or system influenza virus

O=[N+]([O-])C(Br)(CO)CO [Nipaguard BNPD]
Effect on allantoic fluid (visible) [1]: No effect

O=[N+]([O-])C(Br)(CO)CO [bronopol, 2-bromo-2-nitropropan-1,2-diol]
Infectivities (summary) (seed virus grown in eggs; 0.1% preservative): Unsatisfactory
effect on egg infectivities (seed virus grown in eggs; compared with Cosmocil CQ and thiomersal, 0.1% bronopol, 0.4% Biopure): pronounced negative effect
Log egg infective doses/ml (seed virus grown in eggs; virus seed + 0.1% preservative): <5.4 log egg infective doses/ml

C[CH2][Hg][S]c1ccccc1C(=O)[O-].[Na+] [thiomersal, sodium ethylmercurithiosalicylate]
Log egg infective doses/ml (seed virus grown in eggs; virus seed + 0.01% preservative): 8.2
